The values below come from patent US11466034B2, “Compound functioning as bromodomain protein inhibitor, and composition” (Betta Pharmaceuticals Co., Ltd., priority 2017, dated 2022).

The nature of data set [1]: Stability test of Compound 19 crystalline form I (XRD). The format is physicochemical.
Data set [2] in a line: Pharmacokinetic assay in male SD rats, single gavage. The format is in vivo. To be noted: Sprague-Dawley (SD), rat, plasma. As to the method: Male SD rats were offered by Beijing Vital River Laboratory Animal Technology Co., Ltd., the rats were divided into groups of 3, and the suspension of the test sample (5 mg/kg-20 mg/kg) was given by single gavage. The animals were fasted overnight before the experiment, the fasting time was from 10 hours before the administration to 4 hours after the administration. Blood was collected at 0.25, 0.5, 1, 2, 4, 7, and 24 hours after administration. Blood was collected from fundus venous plexus, and placed in EDTA-K2 anticoagulation tube. The sample was centrifuged at 4° C. and 4000 rpm for 10 min, the plasma was transferred into centrifuge tubes and the compound to be test was extracted by protein precipitation, the extract was analyzed by LC-MS/MS.

The target of a further data set is BRD4(D1) (Homo sapiens (Human), UniProt O60885). The data set can be described thus: Inhibitory activity against BRD4(D1), HTRF assay. The format is binding. The procedure, abridged:
(§1)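 HTRF assay: serially diluted compounds (0.1% DMSO final) mixed with protein/peptide mixture and assay mixture, 2 h at room temperature. Inhibition calculated from max/min signal controls; IC50 by four-parameter logistic fit. Conditions identical for D1 and D2 domains.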
On the technique in general: Time-resolved FRET reads energy transfer from a long-lived donor to a nearby acceptor.

Another data set has as its target BRD4(D2) (Homo sapiens (Human), UniProt O60885). The data set can be described thus: Inhibitory activity against BRD4(D2), HTRF assay. The format is binding. Put shortly:
as §1

Where only a bound is given, the exact number is not on record here.

As to `Cc1nc2ncc(-c3cn(C)c(=O)c4[nH]ccc34)nc2n1Cc1ccc(C(F)(F)F)cc1` [Crystalline Form I of compound 19, 6-methyl-4-(2-methyl-1-(4-(trifluoromethyl)benzyl)-1H-imidazo[4,5-b]pyrazin-6-yl)-1H-pyrrolo[2,3-c]pyridin-7(6H)-one], the “solid form stability (XRD)” value in data set [1] (25° C.-60% RH for 10 days), in data set [1] (40° C.-75% RH for 14 days) and in data set [1] (dried at 80° C. for 24 hours) was “no solid form change” each time.
Broadly, the AUC(0-t) is the area under the concentration-time curve up to a stated or last time point. As usually defined, the Cmax is the highest concentration seen after dosing. As usually defined, the half-life is the time in which the quantity being followed falls by half. As to `Cc1nc2ncc(-c3cn(C)c(=O)c4[nH]ccc34)nc2n1Cc1ccc(Cl)cc1` [Example 18, 4-(1-(4-chlorobenzyl)-2-methyl-1H-imidazo[4,5-b]pyrazin-6-yl)-6-methyl-1H-pyrrolo[2,3-c]pyridin-7(6H)-one], in data set [2] (oral dose 10 mg/kg), the AUC(0-t) turned out to be 2290 ng·h/mL, the Cmax was determined as 224 ng/mL and the half-life is 3.4 h.
By IC50 is commonly meant the concentration needed to halve the response being measured. At BRD4(D1) (numeric values), `Cc1nc2ncc(-c3cn(C)c(=O)c4[nH]ccc34)nc2n1Cc1ccc(C(F)(F)F)cc1` [Example 19, 6-methyl-4-(2-methyl-1-(4-(trifluoromethyl)benzyl)-1H-imidazo[4,5-b]pyrazin-6-yl)-1H-pyrrolo[2,3-c]pyridin-7(6H)-one] showed an IC50 of 9.1 nM. Moreover, in data set [2] (oral dose 10 mg/kg), the AUC(0-t) was determined as 9430 ng·h/mL, the highest level (Cmax) was 730 ng/mL and the half-life is 4.5 h. In addition, half-maximal inhibition at BRD4(D2) (numeric values) (IC50) required 1.6 nM.
Compound `Cc1nc2ncc(-c3cn(C)c(=O)c4[nH]ccc34)nc2n1Cc1cccc(C(F)(F)F)c1` [Example 23, 4-(1-(3-trifluoromethylbenzyl)-2-methyl-1H-imidazo[4,5-b]pyrazin-6-yl)-6-methyl-1H-pyrrolo[2,3-c]pyridin-7(6H)-one] showed an IC50 against BRD4(D1) (class symbols) of under 100 nM. In data set [2] (oral dose 10 mg/kg), this compound gave an AUC(0-t) of 2830 ng·h/mL, a Cmax of 407 ng/mL and a half-life of 3.3 h. In addition, the IC50 on BRD4(D2) (class symbols) was under 100 nM.
As to `Cc1nc2ncc(-c3cn(C)c(=O)c4[nH]ccc34)nc2n1Cc1cc(F)cc(C(F)(F)F)c1` [Example 25, 4-(1-(3-fluoro-5-trifluoromethylbenzyl)-2-methyl-1H-imidazo[4,5-b]pyrazin-6-yl)-6-methyl-1H-pyrrolo[2,3-c]pyridin-7(6H)-one], the IC50 on BRD4(D1) (class symbols) was under 100 nM. In data set [2] (oral dose 20 mg/kg), this compound gave an AUC(0-t) of 13500 ng·h/mL, a Cmax of 1230 ng/mL and a half-life of 12.1 h. The compound also gave a 50% inhibitory concentration (IC50) at BRD4(D2) (class symbols) of under 100 nM.
Take `Cc1nc2ncc(-c3cn(C)c(=O)c4[nH]ccc34)nc2n1Cc1ccc(Cl)c(C(F)(F)F)c1` [Example 27, 4-(1-(3-trifluoromethyl-4-chlorobenzyl)-2-methyl-1H-imidazo[4,5-b]pyrazin-6-yl)-6-methyl-1H-pyrrolo[2,3-c]pyridin-7(6H)-one]: the IC50 against BRD4(D1) (class symbols) is under 100 nM. In data set [2] (oral dose 10 mg/kg), this compound gave an AUC(0-t) of 8500 ng·h/mL, a Cmax of 1000 ng/mL and a half-life of 3.8 h. In addition, the concentration for half-maximal inhibition (IC50) against BRD4(D2) (class symbols) was under 100 nM.
`Cn1cc(-c2cnc3cnn(Cc4ccc(Cl)cc4)c3c2)c2cc[nH]c2c1=O` [Example 39, 4-(1-(4-chlorobenzyl)-1H-pyrazolo[4,3-b]pyridin-6-yl)-6-methyl-1,6-dihydro-7H-pyrrolo[2,3-c]pyridin-7-one]: the midpoint of inhibition against BRD4(D1) (numeric values), the IC50, lay at 21.2 nM. Further, in data set [2] (oral dose 10 mg/kg), the AUC(0-t) is 24000 ng·h/mL, the peak level (Cmax) was 1700 ng/mL and the half-life was 4.1 h. The compound also registered an IC50 against BRD4(D2) (numeric values) of 7.9 nM.
In the same order, the values of `CCS(=O)(=O)Nc1cc(-c2cn(C)c(=O)c3[nH]ccc23)nc2c1ncn2Cc1ccc(C(F)(F)F)cc1` [Example 58, N-(5-(6-methyl-7-oxo-6,7-dihydro-1H-pyrrolo[2,3-c]pyridin-4-yl)-3-(4-(trifluoromethyl)benzyl)-3H-imidazo[4,5-b]pyridin-7-yl)ethanesulfonamide] are 1.6 nM, 5100 ng·h/mL, 1960 ng/mL, 2.3 h and 0.5 nM.
With `CCS(=O)(=O)Nc1cc(-c2cn(C)c(=O)c3[nH]ccc23)nc2c1ncn2Cc1ccc(F)cc1F` [Example 59, N-(3-(2,4-difluorobenzyl)-5-(6-methyl-7-oxo-6,7-dihydro-1H-pyrrolo[2,3-c]pyridin-4-yl)-3H-imidazo[4,5-b]pyridin-7-yl)ethanesulfonamide], half-maximal inhibition at BRD4(D1) (numeric values) (IC50) was put at 1.2 nM. Moreover, in data set [2] (oral dose 5 mg/kg), the AUC(0-t) was found to be 10200 ng·h/mL, the Cmax is 3290 ng/mL and the half-life was 2.3 h. On BRD4(D2) (numeric values), this compound yielded an IC50 of 0.5 nM.
With `CCS(=O)(=O)Nc1cc(-c2cn(C)c(=O)c3[nH]ccc23)nc2c1nc(C)n2Cc1ccc(F)cc1F` [Example 64, N-(3-(2,4-difluorobenzyl)-2-methyl-5-(6-methyl-7-oxo-6,7-dihydro-1H-pyrrolo[2,3-c]pyridin-4-yl)-3H-imidazo[4,5-b]pyridin-7-yl)ethanesulfonamide], the half-inhibitory concentration (IC50) on BRD4(D1) (numeric values) was 1.1 nM. In data set [2] (oral dose 6.7 mg/kg), this compound showed an AUC(0-t) of 5590 ng·h/mL, a Cmax of 1480 ng/mL and a half-life of 3.5 h. Further, the IC50 against BRD4(D2) (numeric values) was found to be 0.5 nM.
